From patent US20220095609A1, “FREEZING OF BIOLOGICAL MATERIAL” (SCI-GROUP AS, priority 2018, published 2022)

Tests used:
[1] = tested on: adherent CHO cells (chinese hamster ovary cells K1); experiment: Colony formation (plating efficiency) after freezing and thawing, adherent CHO cells; type: cell-based
Description: The objective was to test the importance of the duration of ice-formation (=time to remove latent heat during ice formation) of seed stocks of adherent CHO cells (chinese hamster ovary cells K1 for viability after thawing. In addition to variation in ice-forming time two variables have been tested: • Cells frozen without DMSO or with 5% DMSO • Cells frozen within a mixed strong magnetic (0,2-0,3T)-pulsing electric (20V (220V/m)-20kHZ) field (hereinafter termed “Strong MAG/PEF”), or just outside the Field Box in a weak magnetic (0,005-0,008T)-pulsing electric (7-16V (75-185V/m)-20 kHz) (hereinafter “Weak MAG/PEF) field.
The cells were grown in 162 cm^2 flasks as monolayer cultures in Ham's F12 medium supplemented with 10% fetal calf serum. The cells were kept in continuous exponential growth by re-culturing twice per week. Harvest for re-culturing or for freezing was done by removing the growth medium, rinsing two times in 1.5 ml trypsin EDTA solution (0.05% and 0.02% respectively), and incubating cultures for 5 min at 37° C. in the residual trypsin solution. The trypsinization was stopped by adding Ham's F12 medium with FBS.
(§1) Cells were resuspended and counted using Countess Automated Cell counter with Trypan Blue Stain (0.4%) to estimate the cell viability.
The cell suspension was transferred to 15 ml tube and centrifuged (200 g, 5 min, 4° C.). The supernatant was removed and the cell pellets were resuspended in cold FBS to give a final concentration of 2×10^6 cells/ml. 0.5 ml of the cell suspension was transferred to 2 ml cryo-tube. Equal volume (0.5 ml) freezing medium with or without DMSO-medium was added to each cryotube to give a final 5% concentration of DMSO and 1×10^6 cells per ml in each tube.
After 10 days in liquid nitrogen samples were thawed and cells seeded for colony formation. There were 3 parallel flasks for each sample tested. The control was the traditional procedure used in the laboratory with 5% DMSO and with 30 min in −20° C., 45 min in ˜−80° C. and final storage in liquid N2.
The flasks were incubated for colony formation in a Steri-cult 200 incubator operated at 37° C. and with 5% CO2 in the atmosphere. Incubation continued for six days. For counting of macroscopic colonies cells were fixed in ethanol and stained with methylene blue.

[2] = tested on: T-47D breast cancer cells; experiment: Colony formation (plating efficiency) after freezing and thawing, T-47D; type: cell-based, human; settings: Standard freezing with 5% DMSO (30 min -20° C., 45 min ~-80° C., liquid N2)
Description: (§2) The objective was to test the importance of the duration of ice-formation time (=time to remove latent heat during ice formation) of seed stocks of two established human cells lines: T-47D breast cancer cells and T98G glioblastoma cells, for viability after thawing. In addition to variation in ice-forming time two variables have been tested: • Cells frozen without DMSO or with 5% DMSO • Cells frozen within a mixed strong magnetic (0.2-0.3 T)-pulsing electric (20V (220V/m)-20kHZ) field (hereinafter termed “Strong MAG/PEF”), or just outside the Field Box in a weak magnetic (0,005-0,008T)-pulsing electric (7-16V (75-185V/m)-20 kHz) (hereinafter “Weak MAG/PEF) field.
(§3) The cells of both types were grown as monolayer cultures in RPMI 1640 medium (Gibco, Rockwill, Md., USA) supplemented with 10% fetal calf serum (Gibco), 2 mM L-glutamine, 200 units/I insulin and 1% penicillin/streptomycin (Gibco). […]
(§4) For each cell type separate preparation of samples for freezing was performed by standard trypsin treatment of several flasks and pooling of the cells after removal of the trypsin solution and re-suspending of the cells in RPMI-medium. After pooling the cell numbers per ml were accurately counted on a flow cytometer and thereafter dilutions of cell suspensions suitable to obtain the concentration of cells desired for transfer to the cryo-tubes were made for each cell type. […]

T98G glioblastoma cells = experiment: Colony formation (plating efficiency) after freezing and thawing, T98G; type: cell-based, human; settings: Standard freezing with 5% DMSO (30 min -20° C., 45 min ~-80° C., liquid N2); T-98G
Description: as §2, §3, §4

cells = experiment: MTS bioassay, viability after freezing and thawing; type: cell-based
Description: […] the presence of a combined magnetic (0.2-0.3 T)-pulsing electric fields (20V (220V/m)-20kHZ), in the presence or absence of DMSO (0-5%) measured as the fraction of cells retaining their full proliferative capacity after freezing, monitored with a rapid bioassay-MTS-as an alternative to conventional plating efficiency testing.
The experiment included the standard method used by most researchers, i.e. freezing with 5% DMSO in a “Nalgene Mr Frosty” apparatus (Merck KgaA, Germany), operated with a 15 minutes phase-transition time corresponding to the state of the art freezing rate of 1 degree per minute.
The cells were grown to 70% confluence in 162 cm^2 flasks as monolayer cultures in Ham's F12 medium supplemented with 10% fetal calf serum (FBS). The cells were kept in continuous exponential growth by re-culturing twice per week. Harvest for re-culturing or for freezing was done by removing the growth medium, rinsing two times in 1.5 ml trypsin EDTA solution (0.05% and 0.02% respectively), and incubating cultures for 5 min at 37° C. in the residual trypsin solution. The trypsinization was stopped by adding Ham's F12 medium with FBS.
as §1
The cell suspension was transferred to 15 ml tube and centrifuged (200xg, 5 min, 4° C.). The supernatant was removed and the cell pellets were resuspended in cold FBS to give a final concentration of 2×10^6 cells/ml. 0.5 ml of the cell suspension was transferred to 2 ml cryo-tube. Equal volume (0.5 ml) freezing medium with or without DMSO-medium was added to each cryotube to give a final 5% concentration of DMSO and 1×10^6 cells per ml in each tube.
After 15 days in liquid nitrogen samples were thawed and cells seeded for MTS assay as follows: • cells were transferred to 15 ml tubes containing 4 ml culture media (total volume of 4+1=5 ml) and centrifuged at 200×g, 10 min, 4° C. • cells were resuspended in 1 ml media with 1% FBS and further diluted 10 times to give a concentration of 1×10^5/ml based on the initial counting before freezing. • After dilution, 0.2 ml of cells from each freezing condition was seeded in 96 well plates and the plates were incubated at 37° C. until the next day. • After the overnight incubation, media was removed and 0.1 ml of a fresh 1% FBS media was added. 20 μl of MTS reagent was added. • Finally, OD490 values were read after 1-4 hours incubation. The number of viable cells/well were calculated based on a standard curve generated using ongoing cell cultures. The calculation was performed in GraphPad Prism 8, using four parameter nonlinear logistic regression and the curve fitting function.

Question: Which results are given for `C[S+](C)[O-]` [DMSO, Dimethyl sulfoxide]?
Answer: PE: plating efficiency (%) ([1]; 5% DMSO, ice formation time 1 min 55 sec, Strong MAG/PEF): 88%; PE: plating efficiency (%) ([1]; 5% DMSO, ice formation time 1 min 55 sec, Weak MAG/PEF): 98%; PE: plating efficiency (%) ([1]; 5% DMSO, ice formation time 4 min 8 sec, Weak MAG/PEF): 95%; PE: plating efficiency (%) ([1]; 5% DMSO, ice formation time 5 min 7 sec, Strong MAG/PEF): 72%; PE: plating efficiency (%) ([1]; 5% DMSO, ice formation time 5 min 7 sec, Weak MAG/PEF): 64%; PE: plating efficiency (%) ([1]; 4 min): 107 (artefacted) %; Plating efficiency—PE (%) [2]: 80-90%; Plating efficiency—PE (%) (T98G glioblastoma cells): 57%; difference in viability between 2 min and 3 min (optimal point) phase-transition time (cells; 1% DMSO): 13%; difference in viability between 3 min and 4 min phase-transition time (cells; 1% DMSO): 39%; percentage viability after freezing and thawing (cells; 1% DMSO, phase-transition time 1.4 min, magnetic 0.2-0.3 T, pulsing electric field): 8%; percentage viability after freezing and thawing (cells; 1% DMSO, phase-transition time 1.8 min, magnetic 0.2-0.3 T, pulsing electric field): 26%; percentage viability after freezing and thawing (cells; 1% DMSO, phase-transition time 2 min, magnetic 0.2-0.3 T, pulsing electric field): 36%; percentage viability after freezing and thawing (cells; 1% DMSO, phase-transition time 2.2 min, magnetic 0.2-0.3 T, pulsing electric field): 35%; percentage viability after freezing and thawing (cells; 1% DMSO, phase-transition time 2.4 min, magnetic 0.2-0.3 T, pulsing electric field): 41%; percentage viability after freezing and thawing (cells; 1% DMSO, phase-transition time 2.6 min, magnetic 0.2-0.3 T, pulsing electric field): 45%; percentage viability after freezing and thawing (cells; 1% DMSO, phase-transition time 2.7 min, magnetic 0.2-0.3 T, pulsing electric field): 47%; percentage viability after freezing and thawing (cells; 1% DMSO, phase-transition time 3 min, magnetic 0.2-0.3 T, pulsing electric field): 47%; percentage viability after freezing and thawing (cells; 1% DMSO, phase-transition time 4 min, magnetic 0.2-0.3 T, pulsing electric field): 4%; percentage viability after freezing and thawing (cells; 1% DMSO, phase-transition time 5.5 min, magnetic 0.2-0.3 T, pulsing electric field): 4%; percentage viability after freezing and thawing (cells; 2% DMSO, phase-transition time 1.4 min, magnetic 0.2-0.3 T, pulsing electric field): 36%; percentage viability after freezing and thawing (cells; 2% DMSO, phase-transition time 1.8 min, magnetic 0.2-0.3 T, pulsing electric field): 57%; percentage viability after freezing and thawing (cells; 2% DMSO, phase-transition time 2 min, magnetic 0.2-0.3 T, pulsing electric field): 53%; percentage viability after freezing and thawing (cells; 2% DMSO, phase-transition time 2.2 min, magnetic 0.2-0.3 T, pulsing electric field): 61%; percentage viability after freezing and thawing (cells; 2% DMSO, phase-transition time 2.4 min, magnetic 0.2-0.3 T, pulsing electric field): 52%; percentage viability after freezing and thawing (cells; 2% DMSO, phase-transition time 2.6 min, magnetic 0.2-0.3 T, pulsing electric field): 63%; percentage viability after freezing and thawing (cells; 2% DMSO, phase-transition time 2.7 min, magnetic 0.2-0.3 T, pulsing electric field): 65%; percentage viability after freezing and thawing (cells; 2% DMSO, phase-transition time 3 min, magnetic 0.2-0.3 T, pulsing electric field): 66%; percentage viability after freezing and thawing (cells; 2% DMSO, phase-transition time 4 min, magnetic 0.2-0.3 T, pulsing electric field): 27%; percentage viability after freezing and thawing (cells; 2% DMSO, phase-transition time 5.5 min, magnetic 0.2-0.3 T, pulsing electric field): 17%; percentage viability after freezing and thawing (cells; 5% DMSO, phase-transition time 1.8 min, magnetic 0.2-0.3 T, pulsing electric field): 76%; percentage viability after freezing and thawing (cells; 5% DMSO, phase-transition time 2.2 min, magnetic 0.2-0.3 T, pulsing electric field): 74%; percentage viability after freezing and thawing (cells; 5% DMSO, phase-transition time 2.4 min, magnetic 0.2-0.3 T, pulsing electric field): 90%; percentage viability after freezing and thawing (cells; 5% DMSO, phase-transition time 2.6 min, magnetic 0.2-0.3 T, pulsing electric field): 98%; percentage viability after freezing and thawing (cells; 5% DMSO, phase-transition time 2.7 min, magnetic 0.2-0.3 T, pulsing electric field): 97%; percentage viability after freezing and thawing (cells; 5% DMSO, phase-transition time 3 min, magnetic 0.2-0.3 T, pulsing electric field): 97%; percentage viability after freezing and thawing (cells; 5% DMSO, phase-transition time 4 min, magnetic 0.2-0.3 T, pulsing electric field): 99%; percentage viability after freezing and thawing (cells; 5% DMSO, phase-transition time 5.5 min, magnetic 0.2-0.3 T, pulsing electric field): 99%; percentage viability after freezing and thawing (cells; 5% DMSO, phase-transition time 15 min, standard method, Nalgene Mr Frosty, 1 degree per minute): 68%
